Measurements as given in US12655116B2, “Substituted isophthalic acid diamides” (Bayer Aktiengesellschaft, priority 2020, dated 2026).

How the values were obtained:
[1] = test system: MATIN; assay: Post-emergence herbicidal action against MATIN; type: in vivo, Matricaria inodora; settings: Tripleurospermum inodorum, 504 h, dosage 20 g/ha
How it was run: (§1)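 Weeds in sandy loam soil received a post-emergence spray at the one-leaf stage. Compounds were applied as WP or EC in water, 600 to 800 l/ha, with 0.2% wetting agent. Activity in % was judged visually after roughly 3 weeks against untreated plants.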

[2] = test system: LOLRI; assay: Pre-emergence herbicidal action against LOLRI; type: in vivo, Lolium rigidum; settings: Lolium rigidum, 504 h, 80 g/ha
How it was run: (§2)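 Visual rating at 3 weeks vs untreated pots; 0–100% scale, 100% = plants died. Treatment: aqueous WP/EC spray onto covering soil, 600–800 l/ha, 0.2% wetter, seeds in sandy loam.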

[3] = test system: VIOTR; assay: Pre-emergence herbicidal action against VIOTR; type: in vivo, Viola tricolor; settings: Viola tricolor, 504 h
How it was run: as §2

[4] = test system: VERPE; assay: Pre-emergence herbicidal action against VERPE; type: in vivo, Veronica persica; settings: Veronica persica, 504 h, dosage 80 g/ha
How it was run: as §2

[5] = test system: AVEFA; assay: Pre-emergence herbicidal action against AVEFA; type: in vivo, Avena fatua; settings: Avena fatua, 504 h, pre-emergence
How it was run: as §2

[6] = test system: VIOTR; assay: Post-emergence herbicidal action against VIOTR; type: in vivo, Viola tricolor; settings: Viola tricolor, 504 h
How it was run: as §1

[7] = test system: ECHCG; assay: Pre-emergence herbicidal action against ECHCG; type: in vivo, Echinochloa crus-galli; settings: Echinochloa crus-galli, 504 h, 80 g/ha
How it was run: as §2

[8] = test system: ABUTH; assay: Post-emergence herbicidal action against ABUTH; type: in vivo, Abutilon theophrasti; settings: Abutilon theophrasti, 504 h, visual assessment about 3 weeks after treatment vs untreated controls
How it was run: as §1

[9] = test system: PHBPU; assay: Post-emergence herbicidal action against PHBPU; type: in vivo, Pharbitis purpurea; settings: Ipomoea purpurea, 504 h, dosage 20 g/ha
How it was run: as §1

[10] = test system: POLCO; assay: Pre-emergence herbicidal action against POLCO; type: in vivo, Polygonum convolvulus; settings: Fallopia convolvulus, 504 h, dosage 80 g/ha
How it was run: as §2

[11] = test system: STEME; assay: Pre-emergence herbicidal action against STEME; type: in vivo, Stellaria media; settings: Stellaria media, 504 h
How it was run: as §2

[12] = test system: POLCO; assay: Post-emergence herbicidal action against POLCO; type: in vivo, Polygonum convolvulus; settings: Fallopia convolvulus, 504 h, dosage 20 g/ha
How it was run: as §1

[13] = test system: ALOMY; assay: Post-emergence herbicidal action against ALOMY; type: in vivo, Alopecurus myosuroides; settings: Alopecurus myosuroides, 504 h, dosage 20 g/ha, visual assessment about 3 weeks after treatment vs untreated controls
How it was run: as §1

[14] = test system: HORMU; assay: Pre-emergence herbicidal action against HORMU; type: in vivo, Hordeum murinum; settings: Hordeum murinum, 504 h; 80 g/ha, pre-emergence
How it was run: as §2

[15] = test system: ALOMY; assay: Pre-emergence herbicidal action against ALOMY; type: in vivo, Alopecurus myosuroides; settings: Alopecurus myosuroides, 504 h, pre-emergence
How it was run: as §2

[16] = test system: DIGSA; assay: Post-emergence herbicidal action against DIGSA; type: in vivo, Digitaria sanguinalis; settings: Digitaria sanguinalis, 504 h
How it was run: as §1

[17] = test system: MATIN; assay: Pre-emergence herbicidal action against MATIN; type: in vivo, Matricaria inodora; settings: Tripleurospermum inodorum, 504 h
How it was run: as §2

[18] = test system: AMARE; assay: Post-emergence herbicidal action against AMARE; type: in vivo, Amaranthus retroflexus; settings: Amaranthus retroflexus, 504 h, 20 g/ha, visual assessment about 3 weeks after treatment, 100% = plants have died, 0% = like control plants
How it was run: as §1

[19] = test system: SETVI; assay: Post-emergence herbicidal action against SETVI; type: in vivo, Setaria viridis; settings: Setaria viridis, 504 h
How it was run: as §1

[20] = test system: STEME; assay: Post-emergence herbicidal action against STEME; type: in vivo, Stellaria media; settings: Stellaria media, 504 h
How it was run: as §1

[21] = test system: SETVI; assay: Pre-emergence herbicidal action against SETVI; type: in vivo, Setaria viridis; settings: Setaria viridis, 504 h
How it was run: as §2

[22] = test system: DIGSA; assay: Pre-emergence herbicidal action against DIGSA; type: in vivo, Digitaria sanguinalis; settings: Digitaria sanguinalis, 504 h
How it was run: as §2

[23] = test system: ABUTH; assay: Pre-emergence herbicidal action against ABUTH; type: in vivo, Abutilon theophrasti; settings: Abutilon theophrasti, 504 h
How it was run: as §2

[24] = test system: AVEFA; assay: Post-emergence herbicidal action against AVEFA; type: in vivo, Avena fatua; settings: Avena fatua, 504 h, 20 g/ha, visual assessment about 3 weeks after treatment, 100% = plants have died, 0% = like control plants
How it was run: as §1

[25] = test system: AMARE; assay: Pre-emergence herbicidal action against AMARE; type: in vivo, Amaranthus retroflexus; settings: Amaranthus retroflexus, 504 h, scored visually after 3 weeks vs untreated controls, 100% = plants have died, 0% = like control plants
How it was run: as §2

[26] = test system: VERPE; assay: Post-emergence herbicidal action against VERPE; type: in vivo, Veronica persica; settings: Veronica persica, 504 h
How it was run: as §1

[27] = test system: ECHCG; assay: Post-emergence herbicidal action against ECHCG; type: in vivo, Echinochloa crus-galli; settings: Echinochloa crus-galli, 504 h, dosage 20 g/ha
How it was run: as §1

[28] = 20 g/ha, scored visually after 3 weeks, 100% = plants have died, 0% = like control plants
[29] = 80 g/ha, scored visually after 3 weeks vs untreated controls (100% = plants have died, 0% = like control plants)

Structure (SMILES): Cn1nnnc1NC(=O)c1ccc(C(F)F)c(C(=O)NC2CC2)c1Cl [Example 1-149]
- pest or weed control at 20 g/ha [1]: 100%
- pest or weed control at 80 g/ha [2]: 90%
- pest or weed control at 20 g/ha ([3]; dosage 20 g/ha): 100%
- pest or weed control at 80 g/ha ([3]; dosage 80 g/ha): 100%
- pest or weed control at 80 g/ha [4]: 100%
- pest or weed control at 80 g/ha ([5]; 80 g/ha): 100%
- pest or weed control at 20 g/ha [5, 28]: 80%
- pest or weed control at 5 g/ha ([6]; 5 g/ha): 100%
- pest or weed control at 20 g/ha ([6]; 20 g/ha): 100%
- pest or weed control at 80 g/ha [7]: 100%
- pest or weed control at 5 g/ha ([8]; dosage 5 g/ha): 80%
- pest or weed control at 20 g/ha ([8]; dosage 20 g/ha): 100%
- pest or weed control at 20 g/ha [9]: 90%
- pest or weed control at 80 g/ha [10]: 80%
- pest or weed control at 20 g/ha ([11]; dosage 20 g/ha): 90%
- pest or weed control at 80 g/ha ([11]; dosage 80 g/ha): 100%
- pest or weed control at 20 g/ha [12]: 100%
- pest or weed control at 20 g/ha [13]: 80%
- pest or weed control at 80 g/ha [14]: 90%
- pest or weed control at 80 g/ha [15, 29]: 90%
- pest or weed control at 20 g/ha [15, 28]: 80%
- pest or weed control at 5 g/ha ([16]; 5 g/ha): 100%
- pest or weed control at 20 g/ha ([16]; 20 g/ha): 100%
- pest or weed control at 20 g/ha ([17]; dosage 20 g/ha): 100%
- pest or weed control at 80 g/ha ([17]; dosage 80 g/ha): 100%
- pest or weed control at 20 g/ha [18]: 100%
- pest or weed control at 5 g/ha ([19]; dosage 5 g/ha): 100%
- pest or weed control at 20 g/ha ([19]; dosage 20 g/ha): 100%
- pest or weed control at 20 g/ha ([20]; 20 g/ha): 90%
- pest or weed control at 5 g/ha ([20]; dosage 5 g/ha): 90%
- pest or weed control at 20 g/ha ([21]; dosage 20 g/ha): 90%
- pest or weed control at 80 g/ha ([21]; dosage 80 g/ha): 100%
- pest or weed control at 20 g/ha ([22]; dosage 20 g/ha): 100%
- pest or weed control at 80 g/ha ([22]; dosage 80 g/ha): 100%
- pest or weed control at 80 g/ha [23, 29]: 100%
- pest or weed control at 20 g/ha ([23]; dosage 20 g/ha, scored visually after 3 weeks vs untreated controls, 100% = plants have died, 0% = like control plants, read-out: Pre-emergence action against ABUTH (herbicidal activity in percent)): 100%
- pest or weed control at 20 g/ha [24]: 100%
- pest or weed control at 20 g/ha ([25]; 20 g/ha): 100%
- pest or weed control at 80 g/ha ([25]; 80 g/ha): 100%
- pest or weed control at 5 g/ha ([26]; 5 g/ha): 80%
- pest or weed control at 20 g/ha ([26]; 20 g/ha): 100%
- pest or weed control at 20 g/ha [27]: 80%
